“And” between values parts separate entries of the source, which are not always exact repeats. Equal values may be shown once.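 How tested: cells in 96-well plates exposed to compound for 48 hours at five concentrations. At the GI50, growth is halved. Definition used: TGI = concentration required for complete inhibition of growth.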
How the values were obtained:
Assay in all cases: NCI anticancer screen, dose series, 48 h
[1] = system: HL-60(TB) leukemia
[2] = system: NCI-H226 lung
[3] = system: COLO 205 colon
[4] = system: LOX IMVI melanoma
[5] = system: OVCAR-3 ovarian
[6] = system: CAKI-1 renal
[7] = system: K-562 leukemia
[8] = system: T-47D breast
[9] = system: SK-MEL-28 melanoma
[10] = system: KM12 colon

SMILES	GI50 [1]	TGI [1]	GI50 [2]	TGI [2]	GI50 [3]	TGI [3]	GI50 [4]	TGI [4]	GI50 [5]	TGI [5]	GI50 [6]	TGI [6]	GI50 [7]	TGI [7]	GI50 [8]	TGI [8]	GI50 [9]	TGI [9]	GI50 [10]	TGI [10]
C=C1CCC2C3(C)COC(C)(C)OC3CCC2(C)C1C/C=C1/C(=O)OCC1OC(C)=O (centres undefined)	2550 nM	7140 nM	12800 nM	33700 nM	1720 nM	3430 nM	704 nM	2460 nM	2470 nM	6070 nM	4920 nM	13000 nM	2850 nM	23200 nM	2960 nM	11500 nM	2210 nM	4940 nM	3880 nM	13400 nM
Cc1c2cnccc2c(C)c2c1c1cc(C#N)ccc1n2C	401 nM	1770 nM	112 nM	379 nM	180 nM	1080 nM	115 nM	615 nM	215 nM	792 nM	92.9 nM	1340 nM	247 nM	1330 nM	303 nM		285 nM	737 nM	243 nM	1980 nM
CCCN1C(=O)NC(=O)C(CC)(N2C(=O)c3c(F)c(F)c(F)c(F)c3C2=O)C1=O (centres undefined)	1970 nM	4330 nM	3080 nM	12100 nM	1740 nM	3290 nM	1660 nM	4340 nM	1690 nM	3160 nM	1860 nM	3750 nM	1730 nM	4550 nM	2010 nM	4800 nM	1710 nM	3220 nM	1420 nM	2840 nM
CC1CC(C)CC(C)C(O)/C(C#N)=C/C=C/CC(C2CCCC2C(=O)O)OC(=O)CC(O)C(C)C1 (centres undefined)	16.6 nM	49.9 nM and 161 nM	31 nM	95.1 nM and 29 nM	56.5 nM	270 nM and 412 nM	16.2 nM	47.9 nM and 21.3 nM	35.8 nM and 17.8 nM	199 nM and 87.9 nM	16.6 nM	254 nM and 221 nM	26.3 nM and < 12.1 nM	66 nM and 256 nM	5.95 nM	49 nM and < 16.6 nM	26.2 nM	84.7 nM and 39.2 nM	47.3 nM and < 15.8 nM	216 nM and 227 nM
c1ccc(NN(Cc2cnccn2)c2ccccc2)cc1		> 100000 nM		> 100000 nM		> 100000 nM		> 100000 nM		> 100000 nM		> 100000 nM		> 100000 nM		> 100000 nM		> 100000 nM		> 100000 nM
O=C(NCC1CC1)c1ccc(-c2cccc(C(=O)NC3CC3)c2)cc1	> 25000 nM	> 25000 nM	> 25000 nM	> 25000 nM	> 25000 nM	> 25000 nM	> 25000 nM	> 25000 nM	> 25000 nM	> 25000 nM	> 25000 nM	> 25000 nM	> 25000 nM	> 25000 nM	> 25000 nM	> 25000 nM	> 25000 nM	> 25000 nM	> 25000 nM	> 25000 nM
O=[N+]([O-])c1ccccc1N=Nc1c(O)[nH]c2cccc(C(F)(F)F)c12		> 100000 nM		> 100000 nM		> 100000 nM		> 100000 nM		62200 nM		> 100000 nM		> 100000 nM		> 100000 nM		> 100000 nM		> 100000 nM
CC(=O)Nc1ccc(-c2cc(C(=O)O)c3cc4ccccc4cc3n2)cc1		> 100000 nM		> 100000 nM		> 100000 nM		> 100000 nM		> 100000 nM		> 100000 nM		> 100000 nM		> 100000 nM		> 100000 nM		> 100000 nM
CCc1c2c(nc3ccc(OCc4ccc(B(O)O)cc4)cc13)-c1cc3c(c(=O)n1C2)COC(=O)[C@]3(O)CC	35.3 nM	> 100000 nM	18.7 nM	339 nM	85.5 nM	8460 nM	< 10 nM	150 nM	172 nM	4460 nM	< 14.3 nM	361 nM	79.2 nM	> 100000 nM	< 10 nM	> 21100 nM	477 nM	> 100000 nM	150 nM	> 51900 nM
CC(=O)c1c(O)c(C)c(O)c(Cc2c(O)c3c(c(C(=O)/C=C/c4ccccc4)c2O)OC(C)(C)C=C3)c1O		26200 nM		23000 nM		3950 nM		14300 nM		15800 nM		9070 nM		14700 nM		7890 nM		14900 nM		16700 nM

Reference: PubChem BioAssay (NCI)
